Results on five compounds are retold here after ChEMBL document CHEMBL1667853, “Design and synthesis of potent Gram-negative specific LpxC inhibitors” (Bioorg Med Chem Lett, 2011).

In brackets after ≈: the same amount, converted by molar mass.

For orientation: Kd means the concentration at which binding is half-saturated. The low end stands for tighter binding, the high end for weaker binding. The MIC is the lowest concentration found to suppress growth. Broadly, the IC50 is the midpoint of a concentration-inhibition curve. Higher therefore signals weaker potency in that assay.

Test [1] in a line: Inhibition of Aquifex aeolicus LpxC.
Test [2] has as its system Pseudomonas aeruginosa. Description: Antimicrobial activity against wild type Pseudomonas aeruginosa by broth dilution assay. The format is functional.
Test [3] has as its system Escherichia coli. Description: Antimicrobial activity against Escherichia coli ATCC 25922 by broth dilution assay. The format is functional. (Dilution methods test growth across graded concentrations, often in twofold steps.)
Test [4] deals with Stenotrophomonas maltophilia. Description: Antimicrobial activity against wild type Stenotrophomonas maltophilia by broth dilution assay. It counts as functional.
In test [5] the test system is Escherichia coli. Description: Antimicrobial activity against ESBL producing Escherichia coli by broth dilution assay. It counts as functional.
A further test deals with Acinetobacter baumannii. Nature of the test: Antimicrobial activity against wild type Acinetobacter baumannii by broth dilution assay. The format is functional.
The test system of test [6] is Acinetobacter calcoaceticus. Description: Antimicrobial activity against wild type Acinetobacter calcoaceticus by broth dilution assay. The format is functional.
Test [7] deals with Klebsiella pneumoniae. Description: Antimicrobial activity against wild type Klebsiella pneumoniae by broth dilution assay. It counts as functional.
The next test relates to Klebsiella aerogenes. Description: Antimicrobial activity against wild type Enterobacter aerogenes by broth dilution assay. The format is functional.
The next test has as its system Serratia marcescens. Description: Antimicrobial activity against wild type Serratia marcescens by broth dilution assay. The format is functional.
The subject of the next test is Proteus vulgaris. Description: Antimicrobial activity against wild type Proteus vulgaris by broth dilution assay. It counts as functional.
For test [8], the system named is Escherichia coli. Description: Antimicrobial activity against wild type Escherichia coli by broth dilution assay. It counts as functional.
For test [9], the system named is Escherichia coli. Description: Antimicrobial activity against Escherichia coli HS294 by broth dilution assay. It counts as functional.
For test [10], the system named is Klebsiella pneumoniae. Description: Antimicrobial activity against ESBL producing Klebsiella pneumoniae by broth dilution assay. The format is functional.
The test system of test [11] is Escherichia coli. Nature of the test: Antimicrobial activity against multidrug-resistant Escherichia coli by broth dilution assay. The format is functional.
The subject of test [12] is Pseudomonas aeruginosa. Nature of the test: Antimicrobial activity against multidrug-resistant Pseudomonas aeruginosa by broth dilution assay. It counts as functional.
In the next test the test system is Enterobacter cloacae. Nature of the test: Antimicrobial activity against ESBL producing Enterobacter cloacae by broth dilution assay. The format is functional.
Test [13] concerns the target T1, UDP-3-O-acyl-N-acetylglucosamine deacetylase (Escherichia coli K-12, UniProt P0A725).
T1 sequence (P0A725 whole entry): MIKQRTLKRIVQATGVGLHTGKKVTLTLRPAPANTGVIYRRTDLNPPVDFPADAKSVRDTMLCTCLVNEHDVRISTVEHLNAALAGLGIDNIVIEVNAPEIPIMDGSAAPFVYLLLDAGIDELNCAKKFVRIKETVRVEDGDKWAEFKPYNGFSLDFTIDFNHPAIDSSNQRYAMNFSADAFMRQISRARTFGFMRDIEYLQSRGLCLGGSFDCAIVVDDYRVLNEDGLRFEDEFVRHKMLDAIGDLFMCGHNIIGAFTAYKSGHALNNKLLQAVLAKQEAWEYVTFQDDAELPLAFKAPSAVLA
Description: Inhibition of Escherichia coli LpxC.

Take `CCCCCCCOc1cccc(C(=O)O)c1`: the affinity in test [1], expressed as Kd, was 2000 nM.
`C[C@@H](O)[C@@H](NC(=O)c1ccc(C#Cc2ccccc2)cc1)C(=O)NO`: the MIC was 10 µg/mL (≈ 29.6 µM) against Pseudomonas aeruginosa [2]; 0.08 µg/mL (≈ 0.236 µM) against Escherichia coli [3]; 5 µg/mL (≈ 14.8 µM) in test [4]; 0.313 µg/mL (≈ 0.925 µM) against Escherichia coli [5]; over 20 µg/mL in the test on Acinetobacter baumannii; 1.25 µg/mL (≈ 3.69 µM) in [6]. Moreover, the minimum inhibitory concentration (MIC) against Klebsiella pneumoniae [7] amounted to 1.25 µg/mL (≈ 3.69 µM); against Klebsiella aerogenes, 2.5 µg/mL (≈ 7.39 µM); in the test with Serratia marcescens, 1.25 µg/mL (≈ 3.69 µM); with Proteus vulgaris, 1.25 µg/mL (≈ 3.69 µM); with Escherichia coli [8], 0.16 µg/mL (≈ 0.473 µM); against Escherichia coli [9], 0.02 µg/mL (≈ 0.0591 µM). Besides, the MIC in the test on Klebsiella pneumoniae [10] came to 0.63 µg/mL (≈ 1.86 µM); against Escherichia coli [11], 0.63 µg/mL (≈ 1.86 µM); in the test with Pseudomonas aeruginosa [12], 0.63 µg/mL (≈ 1.86 µM); with Enterobacter cloacae it was 0.31 µg/mL (≈ 0.916 µM).
As for `C[C@@H](O)[C@@H](NC(=O)N1CCC(c2ccc(-c3ccccc3)cc2)CC1)C(=O)NO`, the MIC with Pseudomonas aeruginosa [2] was 3.13 µg/mL (≈ 7.87 µM); against Escherichia coli [3], 6.25 µg/mL (≈ 15.7 µM); in test [4] it was over 100 µg/mL; in the test with Escherichia coli [5], 3.13 µg/mL (≈ 7.87 µM); against Acinetobacter baumannii, over 100 µg/mL; in [6], over 100 µg/mL. In addition, the MIC in the test on Klebsiella pneumoniae [7] is over 100 µg/mL; with Klebsiella aerogenes, over 100 µg/mL; in the test on Serratia marcescens it was 6.25 µg/mL (≈ 15.7 µM); against Proteus vulgaris it was 3.13 µg/mL (≈ 7.87 µM); in the test with Escherichia coli [8] it was 1.56 µg/mL (≈ 3.92 µM); in the test with Escherichia coli [9], 0.8 µg/mL (≈ 2.01 µM). For the same compound, the MIC against Klebsiella pneumoniae [10] is 12.5 µg/mL (≈ 31.4 µM); with Escherichia coli [11], 3.13 µg/mL (≈ 7.87 µM); in the test with Pseudomonas aeruginosa [12] it was over 12.5 µg/mL; with Enterobacter cloacae, 3.13 µg/mL (≈ 7.87 µM). In test [13], this compound showed an IC50 of 13.8 nM.
As for `CC(C)(O)[C@@H](NC(=O)N1CCN(c2ccc(C#Cc3ccccc3)cc2)CC1)C(=O)NO`, the MIC is over 50 µg/mL against Pseudomonas aeruginosa [2]; 0.8 µg/mL (≈ 1.83 µM) in the test with Escherichia coli [3]; 25 µg/mL (≈ 57.3 µM) in [4]; 1.56 µg/mL (≈ 3.57 µM) with Escherichia coli [5]; over 50 µg/mL in the test on Acinetobacter baumannii; 25 µg/mL (≈ 57.3 µM) in test [6]. Further, the MIC against Klebsiella pneumoniae [7] came to 12.5 µg/mL (≈ 28.6 µM); in the test on Klebsiella aerogenes it was 12.5 µg/mL (≈ 28.6 µM); in the test on Serratia marcescens, 6.25 µg/mL (≈ 14.3 µM); in the test with Proteus vulgaris it was 3.13 µg/mL (≈ 7.17 µM); against Escherichia coli [8], 0.8 µg/mL (≈ 1.83 µM); against Escherichia coli [9], 0.1 µg/mL (≈ 0.229 µM). Besides, the MIC in the test with Klebsiella pneumoniae [10] stood at 6.25 µg/mL (≈ 14.3 µM); against Escherichia coli [11] it was 1.56 µg/mL (≈ 3.57 µM); in the test on Pseudomonas aeruginosa [12] it was 6.25 µg/mL (≈ 14.3 µM); against Enterobacter cloacae, 6.25 µg/mL (≈ 14.3 µM). Further, in [13], half-maximal inhibition (IC50) was put at 0.3 nM.
`C[C@@H](N)[C@@H](NC(=O)N1CCN(c2ccc(C#Cc3ccccc3)cc2)CC1)C(=O)NO`: the minimal inhibitory concentration (MIC) is 12.5 µg/mL (≈ 29.7 µM) against Pseudomonas aeruginosa [2]; 1.56 µg/mL (≈ 3.7 µM) in the test with Escherichia coli [3]; over 50 µg/mL in [4]; 1.56 µg/mL (≈ 3.7 µM) in the test with Escherichia coli [5]; 25 µg/mL (≈ 59.3 µM) with Acinetobacter baumannii; 25 µg/mL (≈ 59.3 µM) in test [6]. Further, the minimum inhibitory concentration (MIC) turned out to be 25 µg/mL (≈ 59.3 µM) against Klebsiella pneumoniae [7]; 25 µg/mL (≈ 59.3 µM) in the test with Klebsiella aerogenes; 12.5 µg/mL (≈ 29.7 µM) against Serratia marcescens; 6.25 µg/mL (≈ 14.8 µM) with Proteus vulgaris; 1.56 µg/mL (≈ 3.7 µM) with Escherichia coli [8]; 0.4 µg/mL (≈ 0.949 µM) against Escherichia coli [9]. Also, the MIC was determined as 12.5 µg/mL (≈ 29.7 µM) in the test on Klebsiella pneumoniae [10], 3.13 µg/mL (≈ 7.43 µM) with Escherichia coli [11], 3.13 µg/mL (≈ 7.43 µM) against Pseudomonas aeruginosa [12] and 3.13 µg/mL (≈ 7.43 µM) in the test with Enterobacter cloacae. Also, in test [13], the IC50 is 0.6 nM.
